Reference: ChEMBL document CHEMBL3991601, “The target landscape of clinical kinase drugs” (Science, 2017)
The source made the active and inactive calls.

Experiments:
[1] = target: T1, Serine/threonine-protein kinase NLK (Homo sapiens, UniProt Q9UBE8)
T1 sequence (Q9UBE8 whole entry): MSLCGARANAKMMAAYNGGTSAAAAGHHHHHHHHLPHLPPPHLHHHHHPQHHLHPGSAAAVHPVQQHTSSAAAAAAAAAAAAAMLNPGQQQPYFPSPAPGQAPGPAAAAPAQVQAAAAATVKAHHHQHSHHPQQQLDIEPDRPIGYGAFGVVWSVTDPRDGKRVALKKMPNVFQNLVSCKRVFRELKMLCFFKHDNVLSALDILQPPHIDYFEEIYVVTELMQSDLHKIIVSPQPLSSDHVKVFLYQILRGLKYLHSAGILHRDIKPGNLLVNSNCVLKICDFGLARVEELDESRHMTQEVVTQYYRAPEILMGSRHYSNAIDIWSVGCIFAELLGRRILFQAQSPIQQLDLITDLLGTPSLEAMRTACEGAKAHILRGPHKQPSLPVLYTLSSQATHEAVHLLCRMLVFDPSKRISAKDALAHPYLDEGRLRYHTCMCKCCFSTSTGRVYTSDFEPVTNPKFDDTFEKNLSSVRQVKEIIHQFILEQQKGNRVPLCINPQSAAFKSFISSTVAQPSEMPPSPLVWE

[2] = target: Actin-related protein 2 (Homo sapiens, UniProt P61160)
[3] = target: T2, Serine/threonine-protein kinase ULK3 (Homo sapiens, UniProt Q6PHR2)
T2 sequence (Q6PHR2 whole entry): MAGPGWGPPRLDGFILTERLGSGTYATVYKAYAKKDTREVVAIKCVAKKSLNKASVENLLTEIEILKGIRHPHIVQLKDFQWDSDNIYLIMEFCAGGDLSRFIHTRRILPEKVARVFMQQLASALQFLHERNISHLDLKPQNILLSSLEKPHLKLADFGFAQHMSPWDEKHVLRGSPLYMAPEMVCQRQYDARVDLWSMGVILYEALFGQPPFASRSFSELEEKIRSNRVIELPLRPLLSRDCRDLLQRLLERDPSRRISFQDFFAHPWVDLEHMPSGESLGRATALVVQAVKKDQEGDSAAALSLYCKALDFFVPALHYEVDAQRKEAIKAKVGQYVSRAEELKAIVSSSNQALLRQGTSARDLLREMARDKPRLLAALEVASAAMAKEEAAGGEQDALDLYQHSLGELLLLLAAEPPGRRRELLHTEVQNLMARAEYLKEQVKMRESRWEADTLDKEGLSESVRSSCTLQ

[4] = target: DNA topoisomerase 2-beta (Homo sapiens, UniProt Q02880)
Sequence of DNA topoisomerase 2-beta (Q02880 whole entry): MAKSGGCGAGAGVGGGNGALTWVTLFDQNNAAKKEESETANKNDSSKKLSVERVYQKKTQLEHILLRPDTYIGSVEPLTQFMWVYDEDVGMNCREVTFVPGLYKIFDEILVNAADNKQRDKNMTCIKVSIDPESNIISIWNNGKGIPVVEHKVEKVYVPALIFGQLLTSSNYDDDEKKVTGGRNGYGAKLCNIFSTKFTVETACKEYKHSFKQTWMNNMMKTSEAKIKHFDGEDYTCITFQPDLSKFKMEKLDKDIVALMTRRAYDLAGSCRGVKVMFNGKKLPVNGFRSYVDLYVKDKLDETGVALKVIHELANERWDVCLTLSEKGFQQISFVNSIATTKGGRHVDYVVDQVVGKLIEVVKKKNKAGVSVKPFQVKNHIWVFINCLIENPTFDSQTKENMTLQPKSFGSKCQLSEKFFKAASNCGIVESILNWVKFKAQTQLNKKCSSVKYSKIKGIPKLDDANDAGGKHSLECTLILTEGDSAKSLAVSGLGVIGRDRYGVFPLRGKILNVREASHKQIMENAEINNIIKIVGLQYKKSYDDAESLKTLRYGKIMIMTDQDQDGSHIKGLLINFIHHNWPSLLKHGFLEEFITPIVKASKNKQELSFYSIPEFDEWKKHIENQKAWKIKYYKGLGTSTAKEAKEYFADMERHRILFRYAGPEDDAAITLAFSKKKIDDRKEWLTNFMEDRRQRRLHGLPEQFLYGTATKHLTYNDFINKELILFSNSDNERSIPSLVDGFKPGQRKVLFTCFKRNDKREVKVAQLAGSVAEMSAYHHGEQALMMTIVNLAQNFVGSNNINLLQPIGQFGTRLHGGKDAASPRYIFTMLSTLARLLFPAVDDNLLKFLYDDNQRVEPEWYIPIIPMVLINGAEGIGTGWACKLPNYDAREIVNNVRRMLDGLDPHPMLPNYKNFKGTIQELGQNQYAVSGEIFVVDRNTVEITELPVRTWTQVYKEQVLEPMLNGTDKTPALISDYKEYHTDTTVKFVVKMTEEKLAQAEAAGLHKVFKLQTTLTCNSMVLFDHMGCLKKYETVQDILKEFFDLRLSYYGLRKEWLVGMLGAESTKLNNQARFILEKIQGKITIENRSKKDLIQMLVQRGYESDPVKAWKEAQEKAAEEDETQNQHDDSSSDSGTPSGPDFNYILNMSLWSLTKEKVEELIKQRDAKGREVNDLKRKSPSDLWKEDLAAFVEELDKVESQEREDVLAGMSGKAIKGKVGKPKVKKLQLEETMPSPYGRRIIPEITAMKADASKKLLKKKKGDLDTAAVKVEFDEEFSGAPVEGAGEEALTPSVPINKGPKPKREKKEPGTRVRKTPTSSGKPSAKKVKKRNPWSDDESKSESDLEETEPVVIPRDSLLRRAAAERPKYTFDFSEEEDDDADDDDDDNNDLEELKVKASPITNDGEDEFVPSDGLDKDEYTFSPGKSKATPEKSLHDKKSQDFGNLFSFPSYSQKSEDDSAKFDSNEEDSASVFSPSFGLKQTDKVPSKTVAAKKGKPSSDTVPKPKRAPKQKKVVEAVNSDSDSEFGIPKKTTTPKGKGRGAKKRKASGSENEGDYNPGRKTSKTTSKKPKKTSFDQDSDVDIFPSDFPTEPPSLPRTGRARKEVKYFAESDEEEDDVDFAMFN

[5] = target: T3, Non-receptor tyrosine-protein kinase TNK1 (Homo sapiens, UniProt Q13470)
T3 sequence (Q13470 whole entry): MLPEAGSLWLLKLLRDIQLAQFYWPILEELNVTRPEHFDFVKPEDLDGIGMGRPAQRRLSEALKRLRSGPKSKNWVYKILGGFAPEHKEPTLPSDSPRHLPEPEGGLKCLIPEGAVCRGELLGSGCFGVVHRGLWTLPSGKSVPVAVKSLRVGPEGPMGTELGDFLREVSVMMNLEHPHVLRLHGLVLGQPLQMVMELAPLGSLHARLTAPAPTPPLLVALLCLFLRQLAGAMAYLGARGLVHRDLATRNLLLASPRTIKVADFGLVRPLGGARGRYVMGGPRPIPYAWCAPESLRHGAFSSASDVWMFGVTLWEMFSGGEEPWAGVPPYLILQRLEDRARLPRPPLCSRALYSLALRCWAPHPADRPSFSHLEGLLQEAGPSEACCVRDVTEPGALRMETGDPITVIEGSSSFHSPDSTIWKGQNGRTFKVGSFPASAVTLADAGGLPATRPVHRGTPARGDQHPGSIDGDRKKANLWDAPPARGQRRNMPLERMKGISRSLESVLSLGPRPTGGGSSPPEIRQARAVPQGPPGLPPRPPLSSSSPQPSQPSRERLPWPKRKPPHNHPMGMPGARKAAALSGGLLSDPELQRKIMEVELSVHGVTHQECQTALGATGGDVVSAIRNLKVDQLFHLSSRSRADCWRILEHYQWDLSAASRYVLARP
Also: in the data inactive means no Kd found up to 30 µM.

Row | SMILES | Kd [1] | Kd [2] | Kd [3] | Kd [4] | Kd [5]
1 | O=c1[nH]ccc2cc(OC3CCNCC3)ccc12 [SAR-407899 FREE BASE] | > 30 µM (inactive) | > 30 µM (inactive) | > 30 µM (inactive) | > 30 µM (inactive) | > 30 µM (inactive)
2 | CNC(=O)c1cccc2cc(Oc3ccnc4cc(OCC5(N)CC5)c(OC)cc34)ccc12 [LUCITANIB] | > 30 µM (inactive) | > 30 µM (inactive) | > 30 µM (inactive) | > 30 µM (inactive) | > 30 µM (inactive)
3 | C=CC(=O)Nc1cc2c(Nc3ccc(F)c(Cl)c3)ncnc2cc1C#CC(C)(C)N1CCN(C)CC1 [AV-412 FREE BASE] | > 30 µM (inactive) | > 30 µM (inactive) | > 30 µM (inactive) | > 30 µM (inactive) | > 30 µM (inactive)
4 | C[C@@H](NC(=O)c1ncnc(N)c1Cl)c1ncc(C(=O)Nc2cc(C(F)(F)F)c(Cl)cn2)s1 [TOVORAFENIB] | > 30 µM (inactive) | > 30 µM (inactive) | > 30 µM (inactive) | > 30 µM (inactive) | > 30 µM (inactive)
5 | NC(=O)Nc1cc(-c2cccc(F)c2)sc1C(=O)N[C@H]1CCCNC1 [AZD-7762] | > 30 µM (inactive) | > 30 µM (inactive) | 1.79 µM (active) | > 30 µM (inactive) | > 30 µM (inactive)
6 | NC(=O)c1c(OCc2c(F)cc(Br)cc2F)nsc1NC(=O)NCCCCN1CCCC1 [OSI-632] | > 30 µM (inactive) | > 30 µM (inactive) | > 30 µM (inactive) | > 30 µM (inactive) | > 30 µM (inactive)
7 | Cn1cc(-c2cnn3c(N)c(Br)c([C@@H]4CCCNC4)nc23)cn1 [SCH-900776] | > 30 µM (inactive) | > 30 µM (inactive) | > 30 µM (inactive) | > 30 µM (inactive) | > 30 µM (inactive)
8 | CCn1c(C(=O)N(C2CC2)C2CC2)cc2c3c(ncn3C)c(Nc3cc(C)n(C)n3)nc21 [BMS-911543] | > 30 µM (inactive) | > 30 µM (inactive) | > 30 µM (inactive) | > 30 µM (inactive) | > 30 µM (inactive)
9 | FC(F)(F)c1ccc(/C=C/c2nc(COc3ccc(CCCCn4ccnn4)cc3)co2)cc1 [MUBRITINIB] | > 30 µM (inactive) | > 30 µM (inactive) | > 30 µM (inactive) | > 30 µM (inactive) | > 30 µM (inactive)
